Data on one molecule can be found in patent US20240329050A1, “METHODS OF DETECTING PENTASACCHARIDES AND TREATMENT AND MONITORING OF LYSOSOMAL STORAGE DISEASE” (Washington University, priority 2021, published 2024).

Several values for one entry are separate records, joined by “and”; a condition that tells them apart may be missing. Equal entries are not always repeated.

This series in a line: Validation of stability of H3N2b in urine, plasma, CSF, stock solution and standard curve matrix. The format is physicochemical, human. As for the experimental part: Validation of stability-The long-term storage, freeze/thaw stabilities, and stabilities on the bench-top and in the autosampler were determined at the LQC and HQC concentration levels (n=3). Long-term storage stabilities of […]-80° C. in urine, plasma, CSF were tested. Bench-top stabilities of […] were evaluated in urine at room temperature, in plasma at room temperature, in CSF at room temperature and 4° C. Freeze/thaw stability in urine, plasma, CSF was tested by freezing the samples at -80° C. overnight, followed by thawing to room temperature the next day. This process was repeated three times. […] Stock solution stability was established by quantification of samples from dilution of two stock solutions that were stored at -20° C. and at room temperature on the bench, respectively, to the final solution (10000 ng/mL in water). The stabilities of […] in the matrix of standard curve for urine, plasma, CSF were test after storage at room temperature and at -80° C. […] standard curve was established each time.

Consider `CC(=O)N[C@H]1[C@H](O[C@@H]2[C@@H](O[C@@H]3[C@H](O)[C@H](O[C@H]4[C@H](O)[C@@H](NC(C)=O)C(O)O[C@@H]4CO)O[C@H](CO)[C@H]3O)O[C@H](CO)[C@@H](O)[C@@H]2O)O[C@H](CO)[C@@H](O[C@@H]2O[C@H](CO)[C@H](O)[C@H](O)[C@H]2O)[C@@H]1O` (stereo partly drawn) [H3N2b, O-β-D-galactopyranosyl-(1→4)-O-(2-acetamido-2-deoxy-β-D-glucopyranosyl)-(1→2)-O-α-D-mannopyranosyl-(1→3)-O-β-D-mannopyranosyl-(1→4)-2-acetamido-2-deoxy-α,β-D-glucopyranose], for which the “Stable after freeze/thaw cycles” value by setting is: (CSF) 3 freeze/thaw cycles; (plasma) 3 freeze/thaw cycles; (urine) 3 freeze/thaw cycles. The “Stable for” value came out at 1 days (CSF at 4° C.); 125 days (CSF at −80° C.); 0.083 days (CSF, room temperature); 1 days (matrix of standard curve for urine, plasma, CSF, room temperature); 158 days (plasma at −80° C.); 1 days (plasma, room temperature). For the same molecule, the “Stable for” value worked out at 3 days (processed CSF samples at 4° C.); 3 days (processed plasma samples at 4° C.); 3 days (processed urine samples at 4° C.); 125 days (standard curve samples for CSF at −80° C.); 158 days (standard curve samples for plasma at −80° C.); 194 days (standard curve samples for urine at −80° C.). The “Stable for” value reads like this: (stock solution at −20° C.) 232 days and 231 days; (stock solution, room temperature) 1 days; (urine at −80° C.) 194 days; (urine, room temperature) 1 days.
